Experiments:
[1] = FU plasma pharmacokinetics; type: in vivo, human
[2] = vorinostat with FOLFOX; cited from earlier work

FU Cmax with vorinostat relative to without (times lower) ([1]; 1,700 mg vorinostat once daily, cycle 2 vs cycle 1, statistically significant): 0.82 times
Compound: O=c1[nH]cc(F)c(=O)[nH]1 [FU, 5-fluorouracil]
Change in FU clearance with the addition of vorinostat ([1]; once-daily or twice-daily MTD): did not observe any decrease
FU clearance at higher vorinostat dose-levels [2]: lower FU clearance
